How the values were obtained:
[1] = system: mechanical allodynia induced by sciatic nerve ligation; assay: sciatic nerve ligation assay of neuropathic pain (mechanical allodynia, modified Randall-Selitto algesiometer); type: in vivo, male Sprague Dawley rats; settings: result in words; given 1 h before the test
Procedure: (§1) The present Example examined whether NMDA NR2B receptor antagonists have an improved therapeutic window over unselective NNIDA/glycine antagonists and other ion channel blockers including lamotrigine and gabapentin, by comparing their anti-algesic effects with their liability to induce motor impairment in rats. Anti-algesic activity was assessed using an assay of neuropathic pain in rats (sciatic nerve ligation) and in a carrageenan-induced hyperalgesia assay. Motor impairment was measured using an accelerating rotarod.
(§2) For sciatic nerve ligation, male Sprague Dawley rats (180-220g) were anaesthetised with isofluorane, the left sciatic nerve exposed and 4 chromic catgut (4.0) ligatures were tied loosely around the nerve (spaced 1-2 mm apart) immediately proximal to the point of trifurcation. In shamoperated animals, the same dissection was performed but without ligation. Responses to mechanical pressure were assessed 7 days after ligation using a modified Randall-Selitto algesiometer in which constant force of […] was applied to the hind paw and the latency to struggle was recorded as the reaction time. Mechanical allodynia was defined as the difference in reaction time for sham and ligature rats. Reaction times for drug treated rats were expressed as a percentage of this response. Compounds were administered 1 h before the test. In the carrageenan-induced hyperalgesia assay, male Sprague Dawley rats (100-120 g) received an intraplantar injection of carrageenan (4.5 mg) and mechanical thresholds were determined 3 h later using a modified Ugo Basile Algesiometer. Control rats received saline (0.15 ml i.pl.). Hyperalgesia was defined as the difference in vocalisation threshold for saline- and carrageenan-injected rats. Paw pressure scores for drug-treated rats were expressed as a percentage of this response. Compounds were administered 2 h after carrageenan. To determine the effects of the compounds on motor co-ordination, male Sprague Dawley rats (160-180 g) were first trained to remain for 120 s on the rotarod apparatus revolving at 12 r.p.m. on the morning before the test. Animals then received drug treatments and 1 h later were placed on an accelerating rotarod (increasing from 4 - 40 r.p.m. during a 5 min period) and the time the rats were able to remain on the rotarod recorded. Lamotrigine, gabapentin and (±)-CP-101,606 were suspended in 0.5% methocel and administered orally (1 ml/kg). Ifenprodil, L-701,324, L-687,414 and (±)-Ro25-6981 were dissolved or suspended in 0.5% methocel and administered intraperitoneally (1 ml/kg). MK-801 was dissolved in distilled water and given i.p. (1 ml/kg). Doses of compounds refer to the free base.

motor co-ordination = assay: accelerating rotarod (motor co-ordination) with observed behaviour; type: in vivo, male Sprague Dawley rats; settings: for ID50 Motor Impairment Rat Rotarod: male, Sprague Dawley, in vivo, ip, 1 h
Procedure: as §1, §2
To determine the effects of morphine and (±)-Ro25-6981 on motor co-ordination, male Sprague Dawley rats (160-180 g) were first trained to remain for 120 s on the rotarod apparatus revolving at. 12 r.p.m. on the morning before the test. Animals then received drug treatments and 1 h later were placed on an accelerating rotarod (increasing from 4 - 40 r.p.m. during a 5 min period) and the time the rats were able to remain on the rotarod recorded.

[2] = system: mechanical hyperalgesia induced by carrageenan; assay: carrageenan-induced hyperalgesia assay (mechanical thresholds, modified Ugo Basile Algesiometer); type: in vivo, male Sprague Dawley rats; settings: for inhibition of hyperalgesia: alone, Figure 2
Procedure: as §1
For sciatic nerve ligation, male Sprague Dawley rats (180-220g) were anaesthetised with isofluorane, the left sciatic nerve exposed and 4 chromic catgut (4.0) ligatures were tied loosely around the nerve (spaced 1-2 mm apart) immediately proximal to the point of trifurcation. In shamoperated animals, the same dissection was performed but without ligation. Responses to mechanical pressure were assessed 7 days after ligation using a modified Randall-Selitto algesiometer in which constant force of […] was applied to the hind paw and the latency to struggle was recorded as the reaction time. […] Reaction times for drug treated rats were expressed as a percentage of this response. […] In the carrageenan-induced hyperalgesia assay, male Sprague Dawley rats (100-120 g) received an intraplantar injection of carrageenan (4.5 mg) and mechanical thresholds were determined 3 h later using a modified Ugo Basile Algesiometer. […] Paw pressure scores for drug-treated rats were expressed as a percentage of this response. […] Animals then received drug treatments and 1 h later were placed on an accelerating rotarod (increasing from 4 - 40 r.p.m. during a 5 min period) and the time the rats were able to remain on the rotarod recorded. […]
Mate Sprague Dawley rats (100-120 g) received an intraplantar injection of carrageenan (4.5 mg) and mechanical thresholds were determined 3 h later using a modified Ugo Basile Algesiometer. […] Paw pressure scores for drug-treated rats were expressed as a percentage of this response. […]

[3] = at doses showing no behavioural abnormality; cited from earlier work

## NCC1(CC(=O)O)CCCCC1 [Gabapentin]
[1]
  reversal of mechanical allodynia induced by sciatic nerve ligation: reversed mchanical allodynia
Motor co-ordination; doses of 30-300 mg/kg
  motor impairments observed: motor impairments (ataxia)

## C[C@@H]1CN(O)C(=O)[C@@H]1N [L-687,414]
[1]
  reversal of mechanical allodynia induced by sciatic nerve ligation: dose-dependently reversed mechanical allodynia

## CC(C(O)c1ccc(O)cc1)N1CCC(Cc2ccccc2)CC1 (centres unmarked) [Ifenprodil]
[1]
  reversal of mechanical allodynia induced by sciatic nerve ligation: reversed mchanical allodynia
Motor co-ordination
  ID50 Motor Impairment Rat Rotarod: ≥50 mg/kg

## CS(=O)(=O)Nc1cc2c(cc1Sc1ccc(F)cc1F)C(=O)CC2 [L-745,337]
[2]; 3 mg/kg p.o.
  inhibition of hyperalgesia: 75%
[2]; 0.3-3 mg/kg p.o., result in words
  inhibition of hyperalgesia: dose-dependent inhibition of hyperalgesia

## (±)-CP-101,606
[1]
  reversal of mechanical allodynia induced by sciatic nerve ligation: dose-dependently reversed mechanical allodynia
[3]
  analgesic activity: Potent analgesic activity

## C[C@]12N[C@H](Cc3ccccc31)c1ccccc12 [MK-801]
[1]
  reversal of mechanical allodynia induced by sciatic nerve ligation: dose-dependently reversed mechanical allodynia
Motor co-ordination; 0.3 and 1 mg/kg doses (i.p.)
  behavioural effects observed: Body rolling, and head weaving

## O=c1[nH]c2cc(Cl)ccc2c(O)c1-c1cccc(Oc2ccccc2)c1 [L-701,324]
[1]
  reversal of mechanical allodynia induced by sciatic nerve ligation: dose-dependently reversed mechanical allodynia
Motor co-ordination; 10 and 30 mg/kg i.p.
  behavioural effects observed: ataxia

## Nc1nnc(-c2cccc(Cl)c2Cl)c(N)n1 [Lamotrigine]
[1]
  reversal of mechanical allodynia induced by sciatic nerve ligation: reversed mchanical allodynia

## C[C@@H](CN1CCC(Cc2ccccc2)CC1)[C@@H](O)c1ccc(O)cc1 (racemic) [(±)-Ro25-6981]
[1]
  reversal of mechanical allodynia induced by sciatic nerve ligation: dose-dependently reversed mechanical allodynia
Motor co-ordination
  ID50 Motor Impairment Rat Rotarod: ≥100 mg/kg
[2]; 10 and 30 mg/kg i.p., Figure 1
  reversal of mechanical hyperalgesia induced by carrageenan: dose-dependent reversal of mechanical hyperalgesia
